In brackets after ≈: the same amount, converted by molar mass.
Experiments:
[1] = tested on: LDL receptor of HepG2 cells; assay: Effect on the LDL receptor of HepG2 cells (125I-LDL binding, internalization, degradation); format: cell-based; conditions: for LDL BINDING: ± SEM; for 125I-LDL Binding / 125I-LDL Internal / 125I-LDL Degradation: HepG2 cells; for 125I-LDL Binding: untreated 57 ± 3; for 125I-LDL Internal: untreated 374 ± 9; for 125I-LDL Degradation: untreated 701 ± 38
Experimental: We have compared LA-I-140 and LN-I-83 with the conventional squalene oxide cyclase inhibitors U18666A and TMD by studying their effect on the LDL receptor of HepG2 cells.
The assay is essentially as described by Goldstein, Basu and Brown (Methods in Enzymology, 98: 241-260, 1983). Briefly, confluent cultures of HepG2 cells are incubated for 24 hours in cholesterol-free medium to induce LDL receptors. Test compounds are added to the medium at appropriate concenrations during this incubation. At the end of 24 hours [^125 I]labeled LDL (200-400 cpm/ng) is added to the medium (10-50 ug LDL protein/ml) and the cells are incubated at 37° C. for 3-6 hours.
(a) Degradation of ^125 I-LDL: The culture medium is removed from the monolayer of cells and undegraded LDL is precipitated with 10% (w/v) trichloroacetic acid.
The supernatant fraction is treated with 5% (w/v) silver nitrate to precipitate any free iodine. The radioactivity in the final supernatant fraction, which represents monoiodotyrosine, the proteolytic degradation product of ^125 I-LDL, is measured in a gamma counter.
(b) Specific binding of ^125 I-LDL: The cell monolayers are washed in a cold room (4° C.) three times rapidly with ice-cold buffer B (150 mM NaCl, 50 mM TrisHCl, pH 7.4 and 2 mg/ml bovine serum albumin). Each monolayer is incubated in buffer B for 10 minutes followed by one wash with buffer C (buffer B with bovine serum albumin omitted). Receptor-boundLDL is then released form cell surface by adding buffer D (50 mM NaCl, 10 mM HEPES, pH 7.4, 4 mg/ml dextran sulfate) and incubating at 4° C for 60 minutes on a rotary shaker (60 rotations per minute). An aliquot of buffer D is counted to determine the amount of ^125 I-LDL released from cell surface.
Internalization of ^125 I-LDL: After removal of buffer D, the cell monolayers are dissolved in 0.1 N NaOH by incubation overnight at 37° C. in a humidified incubator. The alkaline digest is briefly homogenized with the aid of a sonicator and aliquots are withdrawn for the determination of internalized radioactivity and for measurement of cell protein. All values are normalized for 1 mg of cell protein. The results are shown n Table 1 below:
In the case of PCR-II-23 and PCR-II-8B, we have examined their binding to the LDL receptors both when administered alone and in the presence of "down" regulators of this receptor (Table 2).

squalene oxide cyclase [2] = biological target: T1, squalene oxide cyclase (Rattus norvegicus, UniProt P48450); assay: biochemical; format: biochemical; design: Using a rat liver microsomal squalene oxide cyclase assay; from tissue; host or cells: rat liver microsomes / homogenate; conditions: for IC50: 40 uM [3H]-oxidosqualene, pH 7.5, anaerobic, 1 hour, 37° C, read-out: I50 (dosage needed to suppress half the SOC activity); for effectiveness as SOC inhibitor relative to TMD: ratio of I50 values, TMD as reference
T1 sequence (P48450 1-733): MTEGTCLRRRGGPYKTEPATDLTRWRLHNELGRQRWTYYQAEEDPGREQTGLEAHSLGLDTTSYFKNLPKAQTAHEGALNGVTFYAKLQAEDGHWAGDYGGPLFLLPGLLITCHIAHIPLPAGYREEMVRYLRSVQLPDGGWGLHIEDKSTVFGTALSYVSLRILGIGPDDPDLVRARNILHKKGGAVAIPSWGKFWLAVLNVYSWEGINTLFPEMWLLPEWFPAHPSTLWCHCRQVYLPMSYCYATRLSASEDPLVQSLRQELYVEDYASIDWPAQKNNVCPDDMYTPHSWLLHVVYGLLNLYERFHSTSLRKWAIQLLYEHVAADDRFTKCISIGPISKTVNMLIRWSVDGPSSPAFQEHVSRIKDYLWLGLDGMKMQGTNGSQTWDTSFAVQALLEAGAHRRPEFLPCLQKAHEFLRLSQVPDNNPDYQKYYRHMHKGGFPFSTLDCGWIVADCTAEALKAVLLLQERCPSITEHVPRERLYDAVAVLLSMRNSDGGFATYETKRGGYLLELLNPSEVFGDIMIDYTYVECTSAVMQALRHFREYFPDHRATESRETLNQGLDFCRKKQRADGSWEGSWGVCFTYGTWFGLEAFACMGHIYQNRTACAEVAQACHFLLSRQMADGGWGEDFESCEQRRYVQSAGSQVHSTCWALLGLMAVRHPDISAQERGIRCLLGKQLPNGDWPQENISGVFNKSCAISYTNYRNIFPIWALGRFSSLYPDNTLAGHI
Experimental: Using a rat liver microsomal squalene oxide cyclase assay, we have determined the dose at which these drugs and TMD reduce squalene oxide cyclase activity to one-half its normal value. Rat liver microsomes ([…] -rat liver homogenate) were prepared by the method of Popjak, G (Methods in Enzymology, 1969 XV, 393-545). The reaction mixture contained [^3 H]-(S)-[…] (40 uM final), Tween-80 (0.15% w/v final), 0.1 M potassium phosphate, pH 7.5, and inhibitor of varying concentration all in 0.8 ml. The reaction was initiated by the addition of 0.2 ml of the SIO homogenate. The reaction was flushed with N2 and incubated anaerobically for 1 hour at 37° C. The reaction was terminated by addition of 1 ml of 6% potassium hydroxide in methanol (w/v). […] After reduction to […], cold lanosterol was added as carrier, and the extract was applied to a silica TLC plate. After development in methylene chloride, the spot corresponding to lanosterol was scraped off and counted for radioactivity. The I50 for each inhibitor was determined from a plot of radioactive lanosterol formed versus inhibitor concentration.

SOC = conditions: Duriatti et al. 1985; cited from earlier work
[3] = tested on: cyclases of higher plants; conditions: Duriatti et al. 1985; cited from earlier work
[4] = tested on: sterol synthesis in primary rat hepatocytes; assay: Inhibition of sterol synthesis in primary rat hepatocytes ([3H]-acetate pulse, digitonide precipitation); format: cell-based
Experimental: Primary rat hepatocytes (2.2×10^6 cells/60 mm plate) were incubated overnight with various concentrations of inhibitor. The cells are then pulsed for 1 hour with tritiated acetate, harvested by centrifugation and the lipids extracted (Bligh, E. G. and Dyer, W. J. Can. J. Biochem. Physiol. 1959, 37. 911-917). Polar lipid are separated from neutral lipids by silicic acid chromatography. The polar lipids are collected and counted for radioactive acetate incorporation, and used as control for total acetate metabolism. The neutral lipid fraction is saponified and sterols precipitated with digitonide. The digitonide precipitate is counted to measure total incorporation of radioactive acetate into sterols.
lnhibition of sterol synthesis by PCR II-23 was determined as set forth in Example 1.

squalene oxide cyclase [5] = assay: SOC inhibition in in vivo experiments
squalene oxide cyclase [6] = biological target: T1, squalene oxide cyclase
[7] = tested on: cholesterol biosynthesis in rat liver enzyme preparations; conditions: Nelson et al. 1978; cited from earlier work
[8] = tested on: cholesterol biosynthesis in CHO cells; conditions: Nelson et al. 1978; cited from earlier work
[9] = incubation with rat liver homogenate; Nelson et al. 1978; cited from earlier work
lymphocytes = conditions: in vivo; cited from earlier work
[10] = inhibitor with suppressor 25-hydroxy-cholesterol (5 ug/ml), HDF 34 ± 3
[11] = inhibitor with suppressor LDL (200 ug/ml), HDF 27 ± 2
[12] = inhibitor with suppressor Mevalonate, HDF 19 ± 2
[13] = suppressor: none, HDF control 88 ± 6

| SMILES | LDL BINDING [1, 10] | LDL BINDING [1, 11] | LDL BINDING [1, 12] | LDL BINDING [1, 13] | IC50 (squalene oxide cyclase [2]) | 125I-LDL Binding ([1]; 20 ug/ml) | 125I-LDL Internal ([1]; 20 ug/ml) | 125I-LDL Degradation ([1]; 20 ug/ml) | also measured |
| --- | --- | --- | --- | --- | --- | --- | --- | --- | --- |
| CC1(C)CC[C@@]2(C)CC[C@H](O)C(C)(C)[C@@H]2C1 (relative stereo) [PCR II-23, 4,4,7,7, 10beta-Pentamethvl-trans-decal-3beta-ol] | 117 ± 11 ng/mg cell protein | 36 ± 2 ng/mg cell protein | 196 ± 30 ng/mg cell protein | 281 ± 18 ng/mg cell protein | 160 µM | – | – | – | effectiveness as SOC inhibitor relative to TMD (squalene oxide cyclase [2]): about 2.7 times |
| C[C@@H]1[C@@H](O)CC[C@]2(C)CCCC[C@@H]12 (relative stereo) [4,10 beta-dimethyl analogue] | – | – | – | – | – | – | – | – | type of inhibition of SOC (SOC): nonoompetitive inhibitors of SOC; effect on the cyclases of higher plants [3]: virtually no effect |
| C[C@H](CCCC(C)(C)O)[C@H]1CC[C@H]2[C@@H]3CC=C4C[C@@H](O)CC[C@]4(C)[C@H]3CC[C@]12C [25-hydroxy-cholesterol] | – | – | – | – | – | – | – | – | LDL BINDING ([1]; suppressor alone in HDF, 5 ug/ml, no suppressor 88 ± 6): 34 ± 3 ng/mg cell protein |
| CC(O)(CCO)CC(=O)O (stereo not shown) [Mevalonate] | – | – | – | – | – | – | – | – | LDL BINDING ([1]; suppressor alone in HDF, no suppressor 88 ± 6): 19 ± 2 ng/mg cell protein |
| CC1(C)NCC[C@]2(C)CCCC[C@@H]12 (relative stereo) [LA-I-140, 4,4,10-trimethyl-trans-3-azadecalin] | – | – | – | – | – | 75 ± 3 ng/mg cell protein | 642 ± 96 ng/mg cell protein | 408 ± 61 ng/mg cell protein | IC50 ([4]; Hepatocyte, primary rat hepatocytes, overnight incubation, read-out: concentration reducing sterol synthesis to one-half of normal levels): 40 µg/mL (≈ 221 µM) |
| CC1(C)[C@@H](O)CC[C@]2(C)CCCC[C@@H]12 (relative stereo) [TMD, 4, 4,10 beta-trimethyl-trans-decal-3beta-ol] | – | – | – | – | 430 µM | 130 ± 11 ng/mg cell protein | 891 ± 202 ng/mg cell protein | 990 ± 71 ng/mg cell protein | inhibition of SOC in vivo (squalene oxide cyclase [5]): unexpectedly poor inhibitor of SOC; inhibition of SOC in rat hepatocytes (squalene oxide cyclase [6]): unexpectedly poor inhibitor of SOC; inhibition of cholesterol biosynthesis [7]: specifically inhibited cholesterol biosynthesis; inhibition of cholesterol biosynthesis [8]: specifically inhibited cholesterol biosynthesis; major product of metabolism [9]: 4,4,10beta-trimethyl-trans-decalin-3beta, 7beta-diol was isolated as the major product of TMD metabolism; type of inhibition of SOC (SOC): nonoompetitive inhibitors of SOC; effect on the cyclases of higher plants [3]: virtually no effect; inhibition of squalene oxide cyclase in in vitro microsomal assays (squalene oxide cyclase [2]): effective inhibitor of squalene oxide cyclase |
| CC1(C)[C@@H](O)CC[C@]2(C)CCC(F)(F)C[C@@H]12 (relative stereo) [LN I-83, 4,4,10 beta-Trimethyl-7,7-difluoro-trans-decal-3beta-ol] | – | – | – | – | 430 µM | 105 ± 12 ng/mg cell protein | 687 ± 152 ng/mg cell protein | 864 ± 47 ng/mg cell protein | – |
| CC[C@H](C)C(=O)O[C@H]1C[C@@H](C)C=C2C=C[C@H](C)[C@H](CC[C@@H]3C[C@@H](O)CC(=O)O3)[C@H]21 [Mevinolin] | 3 ± 2 ng/mg cell protein | 38 ± 3 ng/mg cell protein | 35 ± 2 ng/mg cell protein | 213 ± 4 ng/mg cell protein | – | – | – | – | up regulation of LDL receptors in HepG2 cells ([1]; culture medium free of sterol supplements (HDF)): equally effective in up regulation of LDL receptors; defects in glycosylation of proteins in lymphocytes (lymphocytes): defects in the glycosylation of proteins in lymphocytes which can persist for ten months after administration |
| CCN(CC)CCO[C@H]1CC[C@@]2(C)C(=CC[C@@H]3[C@@H]2CC[C@]2(C)C(=O)CC[C@@H]32)C1 [U18666A] | – | – | – | – | – | – | – | – | 125I-LDL Binding ([1]; 5 ug/ml): 160 ± 4 ng/mg cell protein; 125I-LDL Internal ([1]; 5 ug/ml): 1093 ± 17 ng/mg cell protein; 125I-LDL Degradation ([1]; 5 ug/ml): 682 ± 141 ng/mg cell protein |
| CC1(C)[C@@H](O)CC[C@]2(C)CCC3(CC3)C[C@@H]12 (relative stereo) [PCR II-8B, (4,4,10beta-trimethyl-trans-decal-3 beta-ol)--7-spiro-1'-cyclopropane] | 69 ± 4 ng/mg cell protein | 39 ± 4 ng/mg cell protein | 176 ± 17 ng/mg cell protein | 278 ± 3 ng/mg cell protein | 80 µM | – | – | – | sterol biosynthesis by primary rat hepatocytes ([4]; 50 ug/ml): no detectable sterol biosynthesis; effectiveness as SOC inhibitor relative to TMD (squalene oxide cyclase [2]): ~5.4 times |
